Drawing on patent US10160755B2 (Plexxikon Inc., priority 2015, dated 2018), this text covers IC50 for five compounds.

For one assay, the target named is T1, FLT3-ITD (Homo sapiens, UniProt P36888).
T1 construct: FLT3-ITD; Invitrogen #PV6190
T1 sequence (P36888 1-993): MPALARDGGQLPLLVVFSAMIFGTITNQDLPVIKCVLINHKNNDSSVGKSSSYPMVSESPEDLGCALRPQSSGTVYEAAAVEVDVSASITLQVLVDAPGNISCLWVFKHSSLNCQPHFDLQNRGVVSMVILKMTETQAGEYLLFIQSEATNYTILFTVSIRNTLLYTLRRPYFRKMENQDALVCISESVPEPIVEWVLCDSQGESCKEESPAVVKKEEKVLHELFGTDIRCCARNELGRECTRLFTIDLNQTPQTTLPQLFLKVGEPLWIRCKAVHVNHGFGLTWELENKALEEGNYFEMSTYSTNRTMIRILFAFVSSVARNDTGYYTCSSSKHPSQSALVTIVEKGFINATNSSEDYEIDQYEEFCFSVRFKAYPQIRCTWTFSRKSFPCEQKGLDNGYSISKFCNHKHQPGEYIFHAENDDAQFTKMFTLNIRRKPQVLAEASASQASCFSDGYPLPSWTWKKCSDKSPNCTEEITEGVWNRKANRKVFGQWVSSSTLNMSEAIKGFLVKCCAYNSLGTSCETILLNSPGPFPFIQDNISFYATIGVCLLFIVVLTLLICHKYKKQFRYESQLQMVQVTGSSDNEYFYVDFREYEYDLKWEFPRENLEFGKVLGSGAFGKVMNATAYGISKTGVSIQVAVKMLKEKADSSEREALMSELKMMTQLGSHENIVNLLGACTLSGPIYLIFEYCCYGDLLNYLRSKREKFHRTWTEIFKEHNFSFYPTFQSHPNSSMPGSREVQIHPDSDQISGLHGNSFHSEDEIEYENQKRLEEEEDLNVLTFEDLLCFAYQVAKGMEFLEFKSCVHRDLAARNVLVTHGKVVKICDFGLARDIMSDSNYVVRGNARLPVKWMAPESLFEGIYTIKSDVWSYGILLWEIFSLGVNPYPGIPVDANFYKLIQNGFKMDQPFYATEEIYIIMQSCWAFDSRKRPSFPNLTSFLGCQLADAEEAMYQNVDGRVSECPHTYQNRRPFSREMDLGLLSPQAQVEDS
Description: FLT3-ITD biochemical kinase assay (AlphaScreen). In a few lines:
(§1)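 Compounds were tested against recombinant enzyme using AlphaScreen detection of tyrosine-phosphorylated biotin-poly(Glu4-Tyr) (30 nM final). The ATP concentration differed by construct: 10 μM for D835Y, 100 μM for ITD.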

For another assay, the target named is T2, FLT3-D835Y (Homo sapiens, UniProt P36888, D835Y).
T2 construct: purchased Invitrogen PV3967
T2 sequence (P36888 27-993 D835Y): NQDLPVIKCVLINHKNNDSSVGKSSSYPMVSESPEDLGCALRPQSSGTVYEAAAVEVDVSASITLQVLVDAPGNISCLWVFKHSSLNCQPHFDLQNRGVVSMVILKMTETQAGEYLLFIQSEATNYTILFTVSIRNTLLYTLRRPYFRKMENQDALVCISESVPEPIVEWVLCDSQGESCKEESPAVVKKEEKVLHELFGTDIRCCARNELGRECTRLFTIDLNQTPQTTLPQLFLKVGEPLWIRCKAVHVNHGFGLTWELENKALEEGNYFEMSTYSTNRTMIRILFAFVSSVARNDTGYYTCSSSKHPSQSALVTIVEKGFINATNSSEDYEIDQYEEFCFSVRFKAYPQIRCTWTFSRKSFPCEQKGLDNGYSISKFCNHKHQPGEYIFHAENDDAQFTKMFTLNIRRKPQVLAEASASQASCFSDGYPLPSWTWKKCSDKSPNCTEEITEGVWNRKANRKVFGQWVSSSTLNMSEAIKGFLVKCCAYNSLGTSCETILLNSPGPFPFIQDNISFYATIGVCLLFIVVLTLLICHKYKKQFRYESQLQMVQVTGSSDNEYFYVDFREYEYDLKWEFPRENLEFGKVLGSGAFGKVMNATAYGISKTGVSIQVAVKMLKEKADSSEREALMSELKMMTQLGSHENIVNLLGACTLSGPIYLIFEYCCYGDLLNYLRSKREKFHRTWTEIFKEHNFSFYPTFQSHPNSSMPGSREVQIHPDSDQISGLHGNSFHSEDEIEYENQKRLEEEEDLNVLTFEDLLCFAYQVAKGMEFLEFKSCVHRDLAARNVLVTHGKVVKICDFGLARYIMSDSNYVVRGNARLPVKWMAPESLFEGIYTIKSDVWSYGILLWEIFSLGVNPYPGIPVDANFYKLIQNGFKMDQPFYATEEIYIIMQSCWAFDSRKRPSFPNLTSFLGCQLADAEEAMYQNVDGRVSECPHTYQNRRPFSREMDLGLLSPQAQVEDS
Briefly: FLT3-D835Y biochemical kinase assay (AlphaScreen). In a few lines:
as §1

On to `CC(C)(C)n1cnc2ccc(-c3c[nH]c4ncc(-c5cccc(N6CCCS6(=O)=O)c5)cc34)cc21` [P-278, 2-[3-[3-(3-tert-butylbenzimidazol-5-yl)-1H-pyrrolo[2,3-b]pyridin-5-yl]phenyl]-1,2-thiazolidine 1,1-dioxide], for which the half-maximal inhibitory concentration (IC50) against FLT3-ITD and on FLT3-D835Y was 0.0001 to 1 µM each time.
Regarding `CCN1CCN(c2cc(-c3cnc4[nH]cc(-c5ccc6ncn(C7CCCNC7)c6c5)c4n3)ccn2)CC1` (stereo not shown) [P-327, 2-[2-(4-ethylpiperazin-1-yl)-4-pyridyl]-7-[3-(3-piperidyl)benzimidazol-5-yl]-5H-pyrrolo[2,3-b]pyrazine], the IC50 against FLT3-ITD and on FLT3-D835Y was 0.0001 to 1 µM in each case.
`COc1cnc2[nH]cc(-c3ccc4ncn(C5CCCNC5)c4c3)c2c1` (stereo not shown) [P-079, 5-methoxy-3-[3-(3-piperidyl)benzimidazol-5-yl]-1H-pyrrolo[2,3-b]pyridine]: the IC50 on FLT3-ITD and against FLT3-D835Y was 0.0001 to 1 µM in each case.
For `Cc1cc(C#Cc2cnc3[nH]cc(-c4ccc5ncn(C(C)(C)C)c5c4)c3n2)cc(C)n1` [P-282, 7-(3-tert-butylbenzimidazol-5-yl)-2-[2-(2,6-dimethyl-4-pyridyl)ethynyl]-5H-pyrrolo[2,3-b]pyrazine], the IC50 against FLT3-ITD and at FLT3-D835Y was 0.0001 to 1 µM each time.
For `CN1CCN(c2cccc(-c3cnc4[nH]cc(-c5ccc6ncn(C(C)(C)C)c6c5)c4n3)c2)CC1` [P-331, 7-(3-tert-butylbenzimidazol-5-yl)-2-[3-(4-methylpiperazin-1-yl)phenyl]-5H-pyrrolo[2,3-b]pyrazine], the IC50 against FLT3-ITD and at FLT3-D835Y was 0.0001 to 1 µM throughout.
